BigSolDB 2.1

N#CCC(N)=O
solubility (mole fraction)
Settings | 283.15 K | 288.15 K | 293.15 K | 298.15 K | 303.15 K | 308.15 K | 313.15 K | 318.15 K | 323.15 K
in ethanol | 0.00653 | 0.00898 | 0.0107 | 0.0129 | 0.0157 | 0.0188 | 0.0233 | 0.0281 | 0.0362
in isopropanol | 0.00409 | 0.00548 | 0.00648 | 0.00816 | 0.0103 | 0.0135 | 0.0168 | 0.0197 | 0.024
in methanol | 0.0186 | 0.0227 | 0.0273 | 0.0332 | 0.0401 | 0.048 | 0.0565 | 0.0684 | 0.08
in n-propanol | 0.00345 | 0.00421 | 0.00565 | 0.0072 | 0.0091 | 0.0115 | 0.0146 | 0.0181 | 0.0229
in water | 0.0171 | 0.0221 | 0.0304 | 0.039 | 0.0505 | 0.0651 | 0.086 | 0.11 | 0.131
